System: PBS2p over-producing strain
Test: Growth yield in the presence of isobutanol, PBS2 ORF overexpressed from GAL1 promoter
Type: cell-based, Saccharomyces cerevisiae
Details: 1% isobutanol, PBS2p over-producing strain vs BY4741
Protocol: The effect of overexpression of the PBS2 coding region was assessed as follows. A Yeast ORF collection (Gelperin, White et al. (2005) Genes Dev. 19(23):2816-2826)_is available from Open Biosystems (Huntsville, Ala.). In this collection yeast ORFs are expressed from the GAL1 promoter in the vector BG1805. This vector can be introduced into ura3 yeast mutants and transformants selected for uracil prototrophy. In the presence of galactose and the absence of glucose, expression from the GAL1 promoter is elevated about 1000 fold relative to the barely detectable level observed with glucose grown cells (Johnston and Davis (1984) Mol. Cell. Biol. 4(8):1440-1448). Note that each ORF encodes a fusion protein of the form:
A plasmid containing the PBS2 ORF was obtained from this collection (YSC3867-9523439) and transformed into yeast strain BY4741 selecting for uracil prototrophy. […] Growth yield was measured by the following method. […] Absorbance was recorded.
Cultures were grown for 2-3 hours to allow one doubling. Absorbance was recorded at this time and was called T=0. […] OD600 was measured after incubation on a roller drum for 2 days. […] Percent growth was calculated as 100×[average A600 of the triplicate isobutanol challenged cultures/average A600 of the triplicate control cultures.

| Compound | improvement in growth yield over the parental strain [%] |
| --- | --- |
| CC(C)CO [isobutanol] | 41 |

System: translation at the initiation step
Test: not given
Details: Ashe et al. 2001; cited from earlier work

| Compound | effect on translation |
| --- | --- |
| butanol | rapid inhibition of translation at the initiation step |

System: PBS2 deletion strains
Test: not given
Details: homozygous deletion set screens (Fuijta et al. 2006; van Voorst et al. 2006) and other literature; cited from earlier work

| Compound | hypersensitivity of PBS2 deletion strains |
| --- | --- |
| O[C@H](CS)[C@H](O)CS (racemic) [dithiothreitol] | hypersensitive |
| OCCS [2-mercaptoethanol] | hypersensitive |
| [Ca+2].[Cl-].[Cl-] [CaCl2] | hypersensitive |
| [Cl-].[Na+] [NaCl] | hypersensitive |
| CCO [ethanol] | not found to be hypersensitive |
| COC(=O)Nc1nc2ccc(C(=O)c3cccs3)cc2[nH]1 [nocodazole] | hypersensitive |
| CCCCCO [pentanol] | not found to be hypersensitive |
| CCCO [propanol] | not found to be hypersensitive |
| O=[As][O-].[Na+] [sodium metaarsenite] | hypersensitive |
| OC[C@@H](O)[C@@H](O)[C@H](O)[C@@H](O)CO [sorbitol] | hypersensitive |
| tunicamycin | hypersensitive |

System: haploid cells
Test: not given
Details: Lorenz et al. 2000; cited from earlier work

| Compound | effect on growth morphology |
| --- | --- |
| CCCCO [1-butanol] | stimulates filamentous growth in haploid cells |

Source: US8455225B2, “Yeast with increased butanol tolerance involving high osmolarity/glycerol response pathway” (Butamax Advanced Biofuels LLC, priority 2008, dated 2013)
